Values of other authors as cited in patent publication US20120148662A1, “Formulation” (priority 2010, published 2012).

Experiments:
[1] = dosed conventionally

aqueous solubility: extremely low
oral bioavailability [1]: low
Compound: CCC(CC)CC1(C(=O)Nc2ccccc2SC(=O)C(C)C)CCCCC1 [dalcetrapib, S-[2-([[1-(2-ethylbutyl)-cyclohexyl]-carbonyl]amino)phenyl]2-methylpropanethioate]
